Assay results reported in US20220389058A1, “PEPTIDES AND COMPOSITIONS FOR USE IN COSMETICS AND MEDICINE” (LIPOTRUE, S.L., priority 2019, published 2022).

Key:
[1] = test system: IL-33; test: Production of protein IL-33 in HDFa cells stimulated with IFNγ, ELISA (Example 8); format: cell-based, human; settings: HDFa cells exposed to IFNγ (300 U/mL), 0.005, 0.01 and 0.05 mg/mL, 24 hours, cell lysates
Method: Adult human dermal fibroblasts (HDFa) were seeded on 24-well plate at concentration of 1×10^5 cells/mL in their corresponding growth media and incubated for 24 hours in standard culture conditions; at that time, three different concentrations (0.005, 0.01 and 0.05 mg/mL) of the Ac-SEQ ID NO: 1-NH2 were added in presence of IL-33-induction stimulus (IFNγ, 300 U/mL). Cells without stimuli were also included as basal group. Positive control group was cells treated with 300 U/mL of IFNγ, but without being treated with a peptide of the present invention. 24 hours later, conditioned media was collected, and cells processed for protein extraction.
IL-33 levels in the cell lysates were analysed with a commercial ELISA kit (DuoSet ELISA. R&D). Absorbances were measured with an automated spectrophotometer plate-reader.

[2] = test system: emilin-1; test: Emilin-1 protein expression, immunofluorescence in HDLMVEC (Example 18); format: cell-based, Human
Method: HDLMVEC were cultured on coverslips in Microvascular Endothelial Cell Growth (MECG) Medium at a density of 16.000 cell/cm^2 and 37° C. in a humidified atmosphere with 5% CO2. When cell confluence was around 70-80%, cells were treated with 0.05 mg/mL Ac-SEQ ID NO:1-NH2 in MECG medium for 24 hours. Then, cells were washed twice with PBS, fixed with 4% formaldehyde and permeabilized with Triton 0.2%. Next, samples were blocked for 1 hour with PBS/BSA 5%, in order to avoid nonspecific antibody binding. Emilin-1 was stained with 1:50 Emilin-1 antibody in PBS/BSA 1%, during 1.5 hours at room temperature. After proper washing with PBS, actin was stained with 50 μg/mL Phalloidin during 1 hour at room temperature. Then, cells were washed with PBS and incubated with 5 μg/mL of the secondary antibody Goat anti-Rabbit IgG for 1 hour at room temperature. Finally, coverslips were mounted using Vectashield with DAPI, that stains nuclei, and samples were kept protected from light at 4° C. until microscopic images were acquired. […]
Images were analyzed using Image J software. Shortly, threshold was adjusted to select emilin-1 staining and mean fluorescent was measured. The number of cells was counted using the DAPI staining. […]
Statistical data analysis was performed using Student t-test by comparison of fluorescence from treated cells vs non-treated cells, *, p<0.05; **, p<0.01 and ***, p<0.001.

[3] = test system: HDFa cells; test: Genes related with response to sleep deprivation, RT-qPCR in HDFa (Example 16); format: cell-based, Human; settings: 0.01 mg/ml, 24 hours
Method: (§1) A stock solution of the peptide was prepared in water at 1 mg/mL. Working solution was freshly prepared at the specified concentration from stock solution in the corresponding supplemented medium.
(§2) RNA (ribonucleic acid) extraction and RT-qPCR (reverse transcription quantitative polymerase chain reaction) were performed. […]
(§3) Cells were finally lysed, and replicates were pooled together for RNA extraction using Qiagen RNeasy Mini kit following manufacturer's instructions. […] (Annealing and extension) (Arya, M., Shergill, I. S., Williamson, M., Gommersall, L., Arya, N., Patel, H. R. (2005) Basic principles of real-time quantitative PCR. Expert Rev. Mol. Diagn.; 5(2):209-19; and Jozefczuk, J. and Adjaye, J. (2011) Quantitative real-time PCR-based analysis of gene expression. Methods Enzymol. 500; 99-109).
(§4) The obtained data was analysed using the ΔΔCt method, which provides the target gene expression values as fold changes in the treated sample compared with an untreated basal sample. […]

[4] = Lipid peroxidation, TBARS assay (Example 13); format: biochemical; settings: 0.01, 0.05, 0.1 and 0.5 mg/mL; 2 hours at 37° C.; vs negative control
Method: Briefly, Trolox (positive control), 0.01, 0.05, 0.1 and 0.5 mg/mL of peptide Ac-SEQ ID NO: 1-NH2 in presence of small unilamellar vesicles of egg yolk phosphatidylcholine (EYPC), a substrate for lipid peroxidation were incubated for 2 hours at 37° C. in the presence of thiobarbituric acid (TBA). A fluorimetric method was used to evaluate the % of lipid peroxidation compared to the negative control (sample only with small unilamellar vesicles of egg yolk phosphatidylcholine).

[5] = test system: HUVECs; test: Genes related with response to sleep deprivation, RT-qPCR in HUVEC (Example 16); format: cell-based, Human; settings: 0.01 mg/ml, 24 hours
Method: as §1, §2, §3, §4

## Ac-Arg-Arg-Gln-Met-Arg-Glu-NH2 (Ac-RRQMRE-NH2) [Ac-SEQ ID NO: 1-NH2]
[1]
  IL-33 protein levels: reduces the IL-33 protein levels produced by HDFa cells exposed to IFNγ (300 U/mL) in a dose-dependent manner
[2]; 0.05 mg/mL, 24 hours, basal = 100.00
  % Mean of emilin-1 compared to untreated cells: 170.88%
[2]; 24 h of treatment
  increase of the expression of emilin-1 when compared with untreated cells: more than 70%
[3]
  IL1RL1 Fold change between treated cells and basal control: −1.26 Fold change
[4]
  lipid peroxidation (TBARS): able to protect from lipid peroxidation
[5]
  NFKB1 Fold change between treated cells and basal control: −1.24 Fold change
